Columns and labels:
[1] = 101.33 kPa, Liquid; for viscosity: Concentric cylinders viscometry; for mass density: vibrating tube
[2] = refractive index (Na D-line) (dimensionless); settings: 101.33 kPa, Liquid, Standard Abbe refractometry

COC(=O)c1ccccc1C(=O)OC [dimethyl 1,2-benzenedicarboxylate]
Settings | mass density, [1] [kg/m3] | refractive index, [2] | viscosity, [1] [mPa·s]
288.15 K | 1196.23 | 1.51708 | 23.53
293.15 K | 1191.54 | 1.51494 | 17.7
298.15 K | 1186.87 | 1.51286 | 13.93
303.15 K | 1182.2 | 1.51083 | 11.15
308.15 K | 1177.55 | 1.50885 | 9.123
313.15 K | 1172.91 | 1.50693 | 7.612
318.15 K | 1168.28 | 1.50507 | 6.453
323.15 K | 1163.65 | 1.50303 | 5.578

COC(=O)CCCCC(=O)OC [dimethyl 1,6-hexanedioate]
Settings | mass density, [1] [kg/m3] | refractive index, [2] | viscosity, [1] [mPa·s]
288.15 K | 1066.79 | 1.43082 | 3.778
293.15 K | 1061.92 | 1.42876 | 3.313
298.15 K | 1057.05 | 1.42669 | 2.937
303.15 K | 1052.18 | 1.42463 | 2.629
308.15 K | 1047.3 | 1.42255 | 2.366
313.15 K | 1042.41 | 1.42048 | 2.143
318.15 K | 1037.52 | 1.41835 | 1.953
323.15 K | 1032.62 | 1.41631 | 1.794
